Experimental data from patent US20030162782A1, “Treatment of neuropathy” (priority 1999, published 2003).

Legend:
[1] = test system: men demonstrating positive symptoms of diabetic neuropathy; experiment: Clinical trial of sildenafil versus placebo (crossover) with pain assessments (PDI, VAS Pain Score, Verbal Evaluation of Pain Relief); type: in vivo, human; conditions: 50 mg every night for 10 days, pain assessed by PDI, VAS Pain Score and Verbal Evaluation of Pain Relief
Method: The study was conducted using sidenafil, however it will be appreciated that the study may be conducted with other cGMP PDE5 inhibitors, for example one or more of the preferred cGMP PDE5 inhibitors listed hereinabove.
The patients then underwent a 7-day treatment-free phase in order to establish baseline data, including a series of pain assessments comprising determining the Pain Disability Index (PDI) (adapted from Tait et al 1990), the Visual Analogue Scale (VAS) Pain Score, and the Verbal Evaluation of Pain Relief. They were then treated with either sildenafil (50 mg) or placebo every night for 10 days and immediately after this period the patient's degree of pain was reassessed. A washout period of 10 days followed where the patients received no treatment. […] Immediately after this period the patient's degree of pain was assessed.
Pain Disability Index (PDI) is determined by patient questionnaire, and measures the overall impact of pain (on a scale of 0 to 10) associated with normal daily activities, (i.e. family/home responsibilities, recreation, social activity, occupation, self-care, sleeping). […]
Visual Analogue Scale (VAS) Pain Score is determined by the patient indicating on a continuous line from 0 (=no pain) to 100 (=pain as bad as it could be) the average level of a pain experienced during the assessment period. […]

[2] = test system: patients with diabetic polyneuropathy; experiment: Anecdotal reports in patients with diabetic polyneuropathy after single doses of sildenafil; type: in vivo, human; conditions: single doses of 50 mg

| SMILES | melting point [°C] | degree of pain experienced [1] | painful symptoms [2] |
| --- | --- | --- | --- |
| CCCOc1ncc(C(C)=O)cc1-c1nc2c(CC)n(C3CN(C(C)C)C3)nc2c(=O)[nH]1 [Example 4, 5-(5-Acetyl-2-propoxy-3-pyridinyl)-3-ethyl-2-(1-isopropyl-3-azetidinyl)-2,6-dihydro-7H-pyrazolo[4,3-d]pyrimidin-7-one] | 162.8 to 163.6 | – | – |
| CCCc1nn(C)c2c(=O)[nH]c(-c3cc(S(=O)(=O)N4CCN(C)CC4)ccc3OCC)nc12 [sildenafil, 5-[2-ethoxy-5-(4-methyl-1-piperazinylsulphonyl)phenyl]-1-methyl-3-n-propyl-1,6-dihydro-7H-pyrazolo[4,3-d]pyrimidin-7-one] | – | reduction in the degree of pain experienced in a number of patients | improvement in painful symptoms |
